According to patent publication US7572436B1, “Thionin as an antineoplastic and immunostimulant” (priority 2000, dated 2009):

Experiments:
Balb C splenocytes [1] = assay: Mitogen assay (^3H-thymidine uptake), murine splenocytes; type: cell-based
[2] = biological target: high affinity binding site on murine Balb/C splenocytes (mouse); assay: binding of 125I-labelled PT to isolated murine spleen cells; non-specific binding (100-fold excess of unlabelled iodinated PT) subtracted
Balb C splenocytes [3] = assay: Mitogen assay (^3H-thymidine uptake), murine splenocytes; type: cell-based; conditions: for CPM of tritiated thymidine incorporated: Balb C splenocytes
Description: (§1) Murine spleen cells or human peripheral blood lymphocytes (PBLS) were obtained aseptically as described herein for use in the mitogen assay. When murine splenocytes were used, they were first treated with red cell lysing buffer (0.17 M Tris, 0.144 NH4C1, pH 7.2), washed in RPMI-10 (standard RPMI growth medium, Sigma Chemical Co., St. Louis, Mo., supplemented with 10% fetal bovine serum) and viable cells counted using Trypan Blue exclusion. Human PBLs were isolated from blood using HISTOPAQUE™-1077, a solution of FICOLL™ and sodium diatrizoate (Sigma Chemical Co., St. Louis, Mo.), and subsequent washings with RPMI-5 (RPMI supplemented with 5% fetal bovine serum) to remove platelets. Isolated lymphocytes were resuspended in RPMI-10 and a viable cell yield determined by Trypan Blue exclusion.
(§2) Drugs and known mitogenic controls were added in triplicate to a 96-well flat bottom microplate aseptically. The culture medium was RPMI-10. Splenocytes or human-lymphocytes were added at a concentration of 3-4×10^5 cells/well, to a final volume of 200 μl/well. The assay plate was incubated at 37° C. in a 5% CO2 humidified incubator. At 48-50 hours, ^3H-thymidine was added (1 μCi/well), and the plate was harvested approximately 16-18 hours later.
(§3) Mitogen assay microplates were harvested using an Inotech plate harvester (Inotech Biosystems International, Inc., Rockville, Md.). Counts per minute (cpm) per well were measured using the Berthold-Inotech Trace 96-plate reader (Inotech AT, Wohlen, Switzerland) and/or a scintillation counter (Packard Tri-carb 2100TR, Packard Instrument Co., Meriden, Conn.). Mitogenic activity was directly determined by comparing cpm levels to controls.
(§4) To test whether PT stimulates mitogen activity, splenocytes were incubated for two days with IL-2 (50 units/ml) or KLH (20 μg/ml) in conjunction with PT in the concentrations shown. Figures represent the radioactivity counts of tritiated thymidine taken up during a subsequent 20-hour incubation period of cells incubated with tritiated thymidine in RPMI.

IL-1 = assay: ELISA of IL-1 production by splenocytes; type: cell-based, Balb C murine; conditions: 48 hours, PT 0.05 μg/ml
Description: (§5) Identical plates are set up for an immunoassay and a mitogen assay. Mouse splenocytes and immuno-stimulating drugs are plated in duplicate wells (immunoassay) and triplicate wells (mitogen assay) in 96-well microplates as described above. The incubation at 37° C. in a humidified 5% CO2 incubator may vary from three to five days. At the end of the activation/proliferation period, the two identical plates are harvested as an immunoassay for cytokines or harvested as a mitogen assay (to which ^3H-thymidine has been added approximately 16-18 hours earlier).
(§6) Immunoassay kits used to detect IL-1β, IL-2, and IL-12 were the murine Quantikine M™ kits produced by R&D Systems (Minneapolis, Minn.). The general procedure is the same for all interleukin cytokines, and is described in the instructions provided by the manufacturer. All reagents are used at room temperature, and are prepared according to kit instructions.
(§7) The immunoassay plate is centrifuged at 200×g to pellet all cells. A 50 μl aliquot of Assay Diluent is first added to the center of each special enzyme-coated well supplied with the kit. Next, 50 μl of standard, control or test sample of supernatant from the immunoassay incubation plate is added to each well. This is incubated at room temperatures for two hours.
Liquid is aspirated from the wells, and the wells are washed five times with surfactant diluted 1:25 with distilled water. A 100 μL aliquot of Conjugate is added to each well and incubated two hours at room temperature. The wells are again aspirated and each well washed five times.
One hundred microliters of Substrate Solution are added to each well and incubated 30 minutes at room temperature. Stop Solution (100 μl) is then added to each well. The color change is light blue to yellow (activity). The plate is read for absorbence at 450 nm and at 540 nm for background readings.
(§8) To calculate the results, the duplicate readings for each pair of standard, control, and test samples are averaged and the average background optical density readings are subtracted. A standard curve is constructed for the cytokine by plotting the mean absorbence for each standard on the y-axis against the concentration on the x-axis and drawing a best-fit curve. Picograms of cytokine are determined from the standard curve. Mitogenic activity determined from the cpm of ^3H-thymidine is compared to the concentrations of cytokine in the experimental samples in the corresponding immunoassay.
One measure of macrophage activation is the production of the cytokine interleukin-1 (IL-1) and also interleukin-12 (IL-12). Incubation of 3×10^5 Balb C murine spleen cells with 0.05 μg/ml PT was performed for 48 hours. The supernatant fluid was assayed with commercial ELISA kits for IL-1 and IL-12. […] Some experiments gave less […] and some more. This is likely a reflection of the state of the immune system in the experimental mice. The addition of KLH, an effective antigen, increased both IL-1 and IL-12 production, and the addition of PT along with the KLH further increased the production of these cytokines.

IL-12 = assay: ELISA of IL-12 production by splenocytes; type: cell-based, Balb C murine; conditions: Experiment 1; 48 hours; PT 0.05 μg/ml, KLH 10 μg/ml; control 1.5
Description: as §5, §6, §7
Liquid is aspirated from the wells, and the wells are washed five times with surfactant diluted 1:25 with distilled water. A 100 μL aliquot of Conjugate is added to each well and incubated two hours at room temperature. […]
One hundred microliters of Substrate Solution are added to each well and incubated 30 minutes at room temperature. […] The plate is read for absorbence at 450 nm and at 540 nm for background readings.
as §8, with “A standard curve is constructed for the cytokine by plotting the mean absorbence for each standard on the y-axis against the concentration on the x-axis and drawing a best-fit curve.” left out, “immunoassay. […]” for “immunoassay.”

non-adherent human PBLs = assay: Mitogen assay (^3H-thymidine uptake), human PBLs; type: cell-based; conditions: IL-2 50 units/ml alone (PT = 0)
Description: as §1, §2, §3, §4

YAC-1 target cells = assay: Natural killer assay (^51Cr release), murine splenocytes against YAC-1; type: cell-based; conditions: Swiss Webster murine splenocytes; YAC-1 targets; 48 hours with drugs; PT 0.01 μg/ml, IL-2 50 units/ml when present; effector to target ratio 80
Description: Murine spleen cell and human peripheral blood lymphocytes (PBLs) were obtained as described in the procedure for the Mitogen Assay.
Drugs and control substances were added, using sterile techniques, to the wells of a 24-well plate, using RPMI-10 as the culture medium. Spleen cells or human lymphocytes were added last to the wells at a concentration of 4×10^6 cells per 2 ml total volume in the well. Splenocyte incubation was usually three days (65-70 hours) while human lymphocyte stimulation may be extended to four to five days. The cells were incubated at 37° C. in a humidified 5% CO2 incubator.
On the day of harvest, 10^7 target cells were labeled with 150 μCi of ^51Cr (sodium chromate). Target cells used were YAC-I (murine Lymphoma) or K562 (human chronic myelogenous leukemia).
The cells were adjusted to 2×10^7 cells/ml in RPMI-10 and 150 μCi of ^51Cr were added to 500 μl of the target cell suspension (10^7 total cells) and incubated in a 5% CO2 humidified incubator for 1.5 hours. The labeled cells were washed three times with 10 ml RPMI-10 and then resuspended in 5 ml (2×10^6 cells/ml). Supernatants from washings of labeled cells were isolated and contained under lead shielding.
The stimulated effector cells were thoroughly mixed and removed from individual wells of the 24-well plate and transferred to tubes for centrifugation at 200×g. The supernatants were decanted and the pelleted cells washed once with 2 ml RPMI-10. The cells were finally resuspended in a total volume of 500 μl at approximately 8×10^6 cells/ml in RPMI-10.
One hundred microliters of the effector cell suspension (8×10^5 cells) were added in triplicate to a 96-well, V-bottom microplate. RPMI-10 was added to the wells designated for spontaneous release and total release of the target cells. One hundred microliters of the target cell suspension (1×10^4 cells/well) were added to the wells for a total volume of 200 μl. The “total release” wells contained 15 μl of 9% Triton X-100, 85 μl of RPMI-10, and 100 μl of target cells.
The 96-well plate was centrifuged at 150×g for four minutes to gently bring the effector and target cells in contact. The plate was then incubated in a humidified 5% CO2 incubator. After four hours, the assay plate was again centrifuged for five minutes at 250×g. One hundred microliters of the supernatant was carefully removed from each well and placed in 12 mm×75 mm glass tubes for counting in a gamma counter. The percent release was calculated using the following formula: […]
Addition of PT stimulates both murine splenocytes and human PBLs to kill tumor cells through lysis. This effect is enhanced in the presence of IL-2. Experimentally, the YAC-1 tumor cell line is routinely used as a target cell for murine NK cells, and the K562 cell line is used as the target for human PBLs. The human prostate cell line DU145 was also included in the test. The data set out in Table 5 show an activation of both murine and human NK cells by PT and IL-2. For these experiments, the drugs, PT and IL-2, were included in the cell suspension and incubated for 48 hours. After this period, the splenocyte suspension was mixed with the YAC-1 target cells that had been loaded with ^51Cr for four hours. The human PBLs were added to a K562 or DU-145 cell suspension that had been similarly loaded. After a 30-minute incubation, the radioactivity in the supernatant fluid was counted as a measure of lysis of the target cells, which reflects NK activity. […]

[4] = tested on: B16F10 melanoma tumor cells; assay: In vivo inhibition of B16F10 melanoma tumor development; set-up: species or system C57BL/6NCr female mice; conditions: B16 melanoma in C57 mice, sc 3 μg PT, 100 units IL-2
Description: C57BL/6NCr female mice (20 g), approximately 50 days old, were shaved in the abdominal area, ear notched for identification, and, two or three days prior to receiving tumor cells, pre-injected subcutaneously with the immunostimulating drugs described.
On “day zero,” B16F10 melanoma tumor cells, cultured in αMEM medium with 10% FBS, were injected intradermally (10^5 cells in 0.1 ml) in the center of the mouse abdomen using a 26 gauge ½ inch needle. Four to five hours later, the drug treatment (as specified) was injected intradermally in a different area of the abdomen than the site of the tumor injection.
Intradermal treatments using the immunostimulatory drug (as specified) continued either every other day or on a Monday-Wednesday-Friday injection schedule. Control tumors (in mice not receiving an immunostimulatory drug) usually formed within seven to ten days. Tumors were examined by visual inspection, measured (length by width), and the area of any resulting lesion was recorded as mm^2 every five days.
Mice were euthanized by CO2 inhalation if the tumor exceeded 500 mm^2. Some experiments were terminated early if all mice in the control group were dead, but the experiments were not less than 20 days. The normal duration of an experiment was about 30 days.
Pyrularia thionin, both alone and in combination with IL-2, was effective in preventing or retarding the development of melanoma tumors when C57BL/6NCr mice were pretreated before injection with B16F10 cells, which produce melanoma tumors.

OCCS [βME, β-mercaptoethanol, reference compound]
stimulation of the mitogen reaction (Balb C splenocytes [1]; 0.1 μg/ml (PT 20 nM; βME 40 nM)): no stimulation

Pyrularia thionin (from UniProt P07504) (peptide)
Kd [2]: 65 nM

granulocyte-macrophage colony-stimulating-factor [GM-CSF]
Cpm, standard mitogen assay (Balb C splenocytes [1]; GM-CSF (5 ng/ml) alone, no PT): 1,024 Cpm
Cpm, standard mitogen assay (Balb C splenocytes [3]; GM-CSF (20 ng/ml) alone, no PT): 1,170 Cpm

keyhole limpet hemocyanin [KLH, reference compound]
IL-1 (IL-1; Experiment 1, KLH 10 μg/ml, control 3.9): 12.4 ± 0 pg/mL
IL-1 (IL-1; Experiment 4, KLH (20 mg/ml), control 9): 9 ± 0.4 pg/mL
CPM of tritiated thymidine incorporated (Balb C splenocytes [3]; KLH 20 μg/ml alone (PT = 0)): 3,301 ± 255 CPM
IL-12 (IL-12): 21 ± 1.6 pg/mL

B1: interleukin-2 (protein, UniProt P04351 21-169, looked up)
Interleukin-2: APTSSSTSSSTAEAQQQQQQQQQQQQHLEQLLMDLQELLSRMENYRNLKLPRMLTFKFYLPKQATELKDLQCLEDELGPLRHVLDLTQSKSFQLEDAENFISNIRVTVVKLKGSDNTFECQFDDESATVVDFLRRWIAFCQSIISTSPQ
notes: immunostimulatory cytokine; murine IL-2 in the mouse experiments, purchased from Sigma
CPM of tritiated thymidine incorporated (non-adherent human PBLs): 1,900 ± 64 CPM
% Cytotoxicity (YAC-1 target cells): 16.3 ± 1.1%
Average Tumor Size ([4]; 20-31 days): 364 mm^2
Number of Deaths ([4]; total mice 12 (IL-2), 15 (PT), 24 (PT + IL-2)): 1
Mice w/o Tumors ([4]; total mice 12 (IL-2), 15 (PT), 24 (PT + IL-2), 20-31 days): 0
CPM of tritiated thymidine incorporated (Balb C splenocytes [3]; IL-2 50 units/ml alone (PT = 0)): 2,379 ± 87 CPM
